Measured values: ChEMBL document CHEMBL3885881, “DrugMatrix”

Species: Rattus norvegicus
Experiment: DrugMatrix - Regimen: Daily Repeat
Type: toxicity, organism-based, Sprague-Dawley
Set-up: regimen Daily Repeat, gender Male, age 6-8 weeks
Conditions: in vivo, po, route oral GAVAGE, vehicle 100 % WATER; for ABSOLUTE BASOPHIL / ABSOLUTE EOSINOPHIL / ABSOLUTE LYMPHOCYTE / ABSOLUTE MONOCYTE / ABSOLUTE SEGMENTED NEUTROPHIL / BASOPHIL / EOSINOPHIL / ERYTHROCYTE COUNT / HEMATOCRIT / HEMOGLOBIN / LEUKOCYTE COUNT / LYMPHOCYTE / MEAN CORPUSCULAR HEMOGLOBIN / MEAN CORPUSCULAR HEMOGLOBIN CONCENTRATION / MEAN CORPUSCULAR VOLUME / MONOCYTE / NEUTROPHIL / NUCLEATED RED BLOOD CELLS / PLATELET COUNT: tissue Blood; for ALANINE AMINOTRANSFERASE / ALBUMIN / ALKALINE PHOSPHATASE / ASPARTATE AMINOTRANSFERASE / BLOOD UREA NITROGEN / CARBON DIOXIDE / CHLORIDE / CHOLESTEROL / CREATINE PHOSPHOKINASE / CREATININE / GLUCOSE / LACTATE DEHYDROGENASE / LIPASE / PHOSPHORUS / POTASSIUM / SODIUM / TOTAL BILIRUBIN / TOTAL PROTEIN / URIC ACID: tissue Plasma
[1] = 10 mg/kg, 120 h, dose level Low, time 5 day
[2] = 900 mg/kg, 72 h, dose level High, time 3 day
[3] = 900 mg/kg, 120 h, dose level High, time 5 day

CC(C)(C)NC[C@H](O)COc1nsnc1N1CCOCC1 [TIMOLOL]
ABSOLUTE BASOPHIL [1]: 0 CELLS/uL | ABSOLUTE EOSINOPHIL [1]: 115.33 CELLS/uL | ABSOLUTE LYMPHOCYTE [1]: 10711.67 CELLS/uL | ABSOLUTE MONOCYTE [1]: 97.67 CELLS/uL | ABSOLUTE SEGMENTED NEUTROPHIL [1]: 1075.33 CELLS/uL | BASOPHIL [1]: 0% | EOSINOPHIL [1]: 0.67% | ERYTHROCYTE COUNT [1]: 5.23 x10E6/uL | HEMATOCRIT [1]: 33.1% | HEMOGLOBIN [1]: 12.83 G/DL | LEUKOCYTE COUNT [1]: 12 x10E3/uL | LYMPHOCYTE [1]: 90% | MEAN CORPUSCULAR HEMOGLOBIN [1]: 24.53 pg | MEAN CORPUSCULAR HEMOGLOBIN CONCENTRATION [1]: 38.77 G/DL | MEAN CORPUSCULAR VOLUME [1]: 63.27 fL | MONOCYTE [1]: 0.67% | NEUTROPHIL [1]: 8.67% | NUCLEATED RED BLOOD CELLS [1]: 0 /100WBC | PLATELET COUNT [1]: 1050 x10E3/uL | ALANINE AMINOTRANSFERASE [1]: 51 u/L | ALBUMIN [1]: 4.03 G/DL | ALKALINE PHOSPHATASE [1]: 411.33 u/L | ASPARTATE AMINOTRANSFERASE [1]: 79.33 u/L | BLOOD UREA NITROGEN [1]: 15 mg/dL | CARBON DIOXIDE [1]: 29 mmol/L | CHLORIDE [1]: 101.33 MEQ/L | CHOLESTEROL [1]: 71 mg/dL | CREATINE PHOSPHOKINASE [1]: 333 u/L | CREATININE [1]: 0.16 mg/dL | GLUCOSE [1]: 180.33 mg/dL | LACTATE DEHYDROGENASE [1]: 129.33 u/L | LIPASE [1]: 9 u/L | PHOSPHORUS [1]: 11.93 mg/dL | POTASSIUM [1]: 5.38 MEQ/L | SODIUM [1]: 144.33 MEQ/L | TOTAL BILIRUBIN [1]: 0.13 mg/dL | TOTAL PROTEIN [1]: 6.1 G/DL | URIC ACID [1]: 0.73 mg/dL | ABSOLUTE BASOPHIL [2]: 0 CELLS/uL | ABSOLUTE EOSINOPHIL [2]: 0 CELLS/uL | ABSOLUTE LYMPHOCYTE [2]: 11176.67 CELLS/uL | ABSOLUTE MONOCYTE [2]: 84.33 CELLS/uL | ABSOLUTE SEGMENTED NEUTROPHIL [2]: 872.33 CELLS/uL | BASOPHIL [2]: 0% | EOSINOPHIL [2]: 0% | ERYTHROCYTE COUNT [2]: 5.11 x10E6/uL | HEMATOCRIT [2]: 32.53% | HEMOGLOBIN [2]: 12.93 G/DL | LEUKOCYTE COUNT [2]: 12.13 x10E3/uL | LYMPHOCYTE [2]: 92% | MEAN CORPUSCULAR HEMOGLOBIN [2]: 25.27 pg | MEAN CORPUSCULAR HEMOGLOBIN CONCENTRATION [2]: 39.77 G/DL | MEAN CORPUSCULAR VOLUME [2]: 63.67 fL | MONOCYTE [2]: 0.67% | NEUTROPHIL [2]: 7.33% | NUCLEATED RED BLOOD CELLS [2]: 0.33 /100WBC | PLATELET COUNT [2]: 1179.33 x10E3/uL | ALANINE AMINOTRANSFERASE [2]: 48 u/L | ALBUMIN [2]: 3.73 G/DL | ALKALINE PHOSPHATASE [2]: 389 u/L | ASPARTATE AMINOTRANSFERASE [2]: 98 u/L | BLOOD UREA NITROGEN [2]: 12.67 mg/dL | CARBON DIOXIDE [2]: 29.33 mmol/L | CHLORIDE [2]: 101.67 MEQ/L | CHOLESTEROL [2]: 77.33 mg/dL | CREATINE PHOSPHOKINASE [2]: 901.67 u/L | CREATININE [2]: 0.28 mg/dL | GLUCOSE [2]: 148.67 mg/dL | LACTATE DEHYDROGENASE [2]: 189.33 u/L | LIPASE [2]: 11.33 u/L | PHOSPHORUS [2]: 13.97 mg/dL | POTASSIUM [2]: 7.3 MEQ/L | SODIUM [2]: 143.43 MEQ/L | TOTAL BILIRUBIN [2]: 0.17 mg/dL | TOTAL PROTEIN [2]: 5.43 G/DL | URIC ACID [2]: 1.67 mg/dL | ABSOLUTE BASOPHIL [3]: 0 CELLS/uL | ABSOLUTE EOSINOPHIL [3]: 114.33 CELLS/uL | ABSOLUTE LYMPHOCYTE [3]: 9946 CELLS/uL | ABSOLUTE MONOCYTE [3]: 153 CELLS/uL | ABSOLUTE SEGMENTED NEUTROPHIL [3]: 1220 CELLS/uL | BASOPHIL [3]: 0% | EOSINOPHIL [3]: 1% | ERYTHROCYTE COUNT [3]: 5.75 x10E6/uL | HEMATOCRIT [3]: 36.17% | HEMOGLOBIN [3]: 13.83 G/DL | LEUKOCYTE COUNT [3]: 11.43 x10E3/uL | LYMPHOCYTE [3]: 87% | MEAN CORPUSCULAR HEMOGLOBIN [3]: 24.07 pg | MEAN CORPUSCULAR HEMOGLOBIN CONCENTRATION [3]: 38.27 G/DL | MEAN CORPUSCULAR VOLUME [3]: 62.97 fL | MONOCYTE [3]: 1.33% | NEUTROPHIL [3]: 10.67% | NUCLEATED RED BLOOD CELLS [3]: 0 /100WBC | PLATELET COUNT [3]: 1330.33 x10E3/uL | ALANINE AMINOTRANSFERASE [3]: 48 u/L | ALBUMIN [3]: 3.63 G/DL | ALKALINE PHOSPHATASE [3]: 402.67 u/L | ASPARTATE AMINOTRANSFERASE [3]: 107.33 u/L | BLOOD UREA NITROGEN [3]: 14.33 mg/dL | CARBON DIOXIDE [3]: 23.67 mmol/L | CHLORIDE [3]: 103.67 MEQ/L | CHOLESTEROL [3]: 78.67 mg/dL | CREATINE PHOSPHOKINASE [3]: 707.33 u/L | CREATININE [3]: 0.14 mg/dL | GLUCOSE [3]: 142 mg/dL | LACTATE DEHYDROGENASE [3]: 252.33 u/L | LIPASE [3]: 10 u/L | PHOSPHORUS [3]: 11.6 mg/dL | POTASSIUM [3]: 6.41 MEQ/L | SODIUM [3]: 144.37 MEQ/L | TOTAL BILIRUBIN [3]: 0.17 mg/dL | TOTAL PROTEIN [3]: 5.27 G/DL | URIC ACID [3]: 1.5 mg/dL
